Laboratory results reported in patent US20230123334A1, “AMINO LIPID COMPOUND, PREPARATION METHOD THEREFOR, AND APPLICATION THEREOF” (SHENZHEN SHENXIN BIOTECHNOLOGY CO., LTD., priority 2020, published 2023).

Assays:
Assay type in all cases: cell-based
Hela cells [1] = experiment: Transfection of Hela cell line, DNA vectors; conditions: 75 ng plasmid DNA, GFP cells / total cells
Method in brief: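 Amino lipid/DOPE liposomes in sodium acetate pH 5.6 were complexed with 75 ng psin-EGFP-IRES-Puro plasmid for 30 min at room temperature, then mixed with 3-5×10^4 Hela cells in DMEM/10% FBS at 37° C. Hoechst stain after 20-24 h, imaging after a further 20-24 h. Efficiency = GFP-positive cells / total nuclei.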

Hela cells [2] = experiment: Transfection of Hela cell line, mRNA vectors; conditions: 50 ng EGFP mRNA per well
Method in brief: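 HeLa cells in DMEM with 10% FBS transfected with 50 ng EGFP mRNA per well. Readout is percentage of GFP-positive cells among total cells counted by Hoechst nuclear stain; Lipofectamine2000 served as positive control.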

MCF7 cells [3] = experiment: Transfection of MCF7 cell line, DNA vectors; design: concentration or dose not given beside the values; conditions: plasmid DNA, GFP cells / total cells
Method in brief: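 MCF7 cells in DMEM with fetal bovine serum were transfected in 96-well format. Read-out was the percentage of GFP-fluorescent cells among total cells counted by Hoechst nuclear stain. Lipofectamine2000 served as positive control.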

MCF7 cells [4] = experiment: Transfection of MCF7 cell line, mRNA vectors; conditions: 50 ng EGFP mRNA per well
Method in brief: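 MCF7 cells in DMEM with fetal bovine serum were transfected with 50 ng EGFP mRNA per well. Read-out was the percentage of GFP-positive cells among total Hoechst-stained nuclei, with Lipofectamine2000 as positive control.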

[5] = test system: embryonic stem cells (hESC2); experiment: Screening as DNA vectors in embryonic stem cells, flow cytometry; conditions: 75 ng plasmid DNA, 48 hours after transfection, flow cytometer
Method in brief: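 hESC2 cells in mTeSR1 on matrigel transfected with 75 ng pSin-EGFP-IRES-Puro complexed with amino lipid/DOPE liposomes formed in sodium acetate pH 5.6; 37 °C, 5% CO2. After 48 h, GFP-positive cells counted by flow cytometry (≥2000 cells), efficiency also expressed relative to Lipofectamine Stem.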

[6] = test system: embryonic stem cells (hESC2); experiment: Screening as mRNA vectors in embryonic stem cells; conditions: 50 ng EGFP mRNA per well
Method in brief: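 EGFP mRNA (50 ng per well) transfected into hESC2 cells grown in mTeSR1; Lipofectamine Stem served as positive control. Read-out: GFP-fluorescent cells as percentage of total cells.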

cardiomyocytes [7] = experiment: Screening as DNA vectors in cardiomyocytes; design: concentration or dose not given beside the values; conditions: method as Example 4
Method in brief: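 hESC-derived cardiomyocytes in DMEM with 10% FBS were transfected with a GFP DNA vector; Lipofectamine Stem served as positive control. Read-out: percentage of GFP-positive cells relative to total cells counted by Hoechst nuclear stain.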

cardiomyocytes [8] = experiment: Screening as mRNA vectors in cardiomyocytes; conditions: 50 ng EGFP mRNA per well
Method in brief: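 Cardiomyocytes differentiated from hESC, in DMEM with 10% FBS, were transfected with 50 ng EGFP mRNA per well. The read-out was GFP-positive cells as a percentage of Hoechst-stained nuclei, with Lipofectamine Stem as positive control.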

SMILES	Absolute DNA transfection efficiency in Hela cells (Hela cells [1]) [%]	Absolute mRNA transfection efficiency in Hela cells (Hela cells [2]) [%]	Absolute DNA transfection efficiency in MCF7 cells (MCF7 cells [3]) [%]	Absolute mRNA transfection efficiency in MCF7 cells (MCF7 cells [4]) [%]	Absolute DNA transfection efficiency in embryonic stem cells [5] [%]	Absolute mRNA transfection efficiency in embryonic stem cells [6] [%]	Absolute DNA transfection efficiency in cardiomyocytes (cardiomyocytes [7]) [%]	Absolute mRNA transfection efficiency in cardiomyocytes (cardiomyocytes [8]) [%]
CCCCCCCCCCCCNc1nc(NCC2CCN(C)CC2)nc(SCCCCCCCCC)n1 [Compound S9N12D10]	12.9	12.9	31.7	11.2	5.3	14.0	3.6	40.6
CCCCCCCCCCCSc1nc(NCCCCCCCC)nc(NCCN2CCCC2)n1 [Compound S11N8D3]	12.9	12.9	17.7	8.6	4.3	12.8	0.2	24.5
CCCCCCCCCCCSc1nc(NCCCCCCCC)nc(NCCN2CCN(C)CC2)n1 [Compound S11N8D5]	9.6	9.6	20.1	21.2	4.0	6.9	9.1	32.2
CCCCCCCCCCCSc1nc(NCCCCCCCC)nc(NCCCN(C)C)n1 [Compound S11N8D6]	18.4	18.4	9.3	11.0	1.7	2.0	6.7	7.9
CCCCCCCCCCCSc1nc(NCCCCCCCC)nc(NCCCN2CCOCC2)n1 [Compound S11N8D8]	6.1	6.1	0.1	7.8	0.0	1.3	1.2	0.9
CCCCCCCCCCCSc1nc(NCCCCCCCC)nc(NCCCN2CCN(C)CC2)n1 [Compound S11N8D9]	11.7	11.9	20.9	42.3	3.6	34.8	0.1	25.8
CCCCCCCCCCCSc1nc(NCCCCCCCC)nc(NCC2CCN(C)CC2)n1 [Compound S11N8D10]	16.7	16.7	25.6	38.9	12.6	35.4	6.6	41.7
CCCCCCCCCCCSc1nc(NCCCCCCCCC)nc(NCCN2CCCC2)n1 [Compound S11N9D3]	11.5	11.5	13.6	26.6	3.7	22.0	0.3	8.3
CCCCCCCCCCCSc1nc(NCCCCCCCCC)nc(NCCN2CCN(C)CC2)n1 [Compound S11N9D5]	10.6	10.6	23.1	17.8	0.5	24.9	19.7	30.7
CCCCCCCCCCCSc1nc(NCCCCCCCCC)nc(NCCCN(C)C)n1 [Compound S11N9D6]	20.3	20.3	25.1	32.6	1.0	0.7	22.5	8.7
CCCCCCCCCCCSc1nc(NCCCCCCCCC)nc(NCCCN2CCOCC2)n1 [Compound S11N9D8]	4.3	4.3	0.9	13.1	0.8	3.2	1.7	2.6
CCCCCCCCCCCSc1nc(NCCCCCCCCC)nc(NCCCN2CCN(C)CC2)n1 [Compound S11N9D9]	11.8	11.8	33.5	27.3	1.4	33.5	0.3	21.0
CCCCCCCCCCCSc1nc(NCCCCCCCCC)nc(NCC2CCN(C)CC2)n1 [Compound S11N9D10]	16.2	16.2	48.7	36.6	0.5	39.3	16.4	29.6
